Where a SMILES comes first, the peptide text is derived from it. The star is where a group is joined. Cbz = O=C(OCc1ccccc1)*
Tests used:
Format in all cases: cell-based, human
SPOP = test: Immunoblot of SPOP levels; settings: D4476 treatment
Description: (§1) Cells were lysed in EBC buffer (50 mM Tris pH 7.5, 120 mM NaCl, 0.5% NP-40) or Triton X-100 buffer (50 mM Tris pH 7.5, 150 mM NaCl, 1% Triton X-100) supplemented with protease inhibitors (Complete Mini, Roche) and phosphatase inhibitors (phosphatase inhibitor cocktail set I and II, Calbiochem). The protein concentrations of whole cell lysates were measured by NanoDrop OneC using the Bio-Rad protein assay reagent as described previously. Equal amounts of whole cell lysates were resolved by SDS-PAGE and immunoblotted with indicated antibodies. For immunoprecipitations analysis, unless specified, 1000 μg lysates were incubated with the indicated antibody (1-2 μg) for 3-4 hr at 4° C. followed by 1 hr incubation with 10 μL Protein A magnetic beads (New England Biolabs). Or 1000 μg lysates containing tagged molecules were incubated with agarose beads coupled antibodies for the specific tag for 3-4 hr at 4° C. For endogenous IPs, incubation of cell lysates with antibodies was extended to overnight. The recovered immuno-complexes were washed five times with NETN buffer (20 mM Tris, pH 8.0, 100 mM NaCl, 1 mM EDTA and 0.5% NP-40) before being resolved by SDS-PAGE and immunoblotted with indicated antibodies.

EWS-FLI1 binding to SPOP = EWS-FLI1 binding to SPOP in cells; settings: D4476 treatment
Description: as §1

EWS-FLI1 mRNA = test: RT-PCR of EWS-FLI1 mRNA levels
Description: Cells were isolated by dissociation with 0.05% Trypsin, followed by media quenching. The cells were spun down at 300×rcf for 5 minutes. The media was aspirated, the pellet was suspended with 1×PBS, and then the cells were spun down again. The PBS was aspirated. RNA extraction was performed with an RNA extraction kit (BioBasic BS584). The final elution step was done with 50 μL of RNAse-free water. The […] with the NanoDrop OneC (Thermo Fisher Scientific). Three biological replicates were performed for RNA extraction. Quartile analysis was done to exclude outliers and significance was determined by one-way ANOVA tests.

EWS-FLI1 = test: Immunoblot of EWS-FLI1 protein abundance in cells; settings: for SPOP-mediated decrease of ectopically expressed EWS-FLI1: HEK293T cells, 10 μM MG132 or 1 μM MLN4924 overnight (FIG. 1G)

SMILES: NC(=O)c1ccc(-c2nc(-c3ccc4c(c3)OCCO4)c(-c3ccccn3)[nH]2)cc1 [D4476]
- SPOP levels (SPOP): unaffected
- EWS-FLI1 binding to SPOP (EWS-FLI1 binding to SPOP): reduced EWS-FLI1 binding to SPOP
- EWS-FLI1 mRNA levels (EWS-FLI1 mRNA; D4476 treatment): without significantly affecting EWS-FLI1 mRNA levels
- EWS-FLI1 protein levels (EWS-FLI1; A673^3A KI cells, D4476 for 16 hrs (FIG. 2P)): not observed
- EWS-FLI1 protein levels (EWS-FLI1; A673 parental cells, D4476 for 16 hrs (FIG. 2O)): Increased EWS-FLI1 protein levels
- EWS-FLI1 protein abundance (EWS-FLI1; EWS502 cells (CUL3 E358Q), D4476 treatment): neither D4476 treatment, nor SPOP depletion increased EWS-FLI1 protein abundance
- EWS-FLI1 protein accumulation (EWS-FLI1; SK-N-MC, EWS894 and MHH-ES-1 cells, D4476 for 16 hrs (FIGS. 2B-2D)): resulted in the accumulation of EWS-FLI1 in multiple Ewing sarcoma cells
- effect on EWS-FLI1 levels in SPOP-depleted cells (EWS-FLI1; endogenous SPOP-depleted A673 cells, D4476 for 16 hrs (FIG. 2H)): attenuated

SMILES: Cc1sc2c(c1C)C(c1ccc(Cl)cc1)=N[C@@H](CC(=O)OC(C)(C)C)c1nnc(C)n1-2 [JQ1]
- EWS-FLI1 protein abundance (EWS-FLI1; MHH-ES-1 or A673 cells, JQ1 treatment): didn't change EWS-FLI1 protein abundance

SMILES: CC(C)C[C@@H](C=O)NC(=O)[C@H](CC(C)C)NC(=O)[C@H](CC(C)C)NC(=O)OCc1ccccc1 [MG132] (Cbz-Leu-Leu-Leu-aldehyde)
- 3A-EWS-FLI1 mutant protein response (EWS-FLI1; 3A-EWS-FLI1 (S464A/S465A/S466A), MG132 treatment): resistance to MG132 treatment
- EWS-FLI1 protein abundance (EWS-FLI1; A673 and SK-N-MC cells, 10 μM MG132 for 4 hrs): significantly increased EWS-FLI1 protein abundance
- SPOP-mediated decrease of ectopically expressed EWS-FLI1 (EWS-FLI1): blocked
- EWS-FLI1 protein levels following OTUD7A depletion (EWS-FLI1; tet-induced OTUD7A depletion, MG132 treatment): largely preserved EWS-FLI1 protein levels

SMILES: NS(=O)(=O)OC[C@@H]1C[C@@H](n2ccc3c(N[C@H]4CCc5ccccc54)ncnc32)C[C@@H]1O [MLN4924]
- EWS-FLI1 protein stabilization (EWS-FLI1; A673 cells, 1 μM MLN4924 overnight): largely stabilized EWS-FLI1
- SPOP-mediated decrease of ectopically expressed EWS-FLI1 (EWS-FLI1): blocked

SMILES: Nc1cccc2c1CN(C1CCC(=O)NC1=O)C2=O (centres unmarked) [lenalidomide]
- EWS-FLI1 mRNA levels (EWS-FLI1 mRNA; lenalidomide treatment): without affecting EWS-FLI1 mRNA levels
- EWS-FLI1 protein abundance (EWS-FLI1; MHH-ES-1 cells, lenalidomide for 16 hrs (FIG. 2I)): increased EWS-FLI1 protein abundance
